Results taken from PubChem BioAssay (NCI).
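Where inhibition never reached the appropriate level, the endpoint shown equals the highest concentration tested. Otherwise, values were interpolated linearly from a five-concentration, 48-hour dose response in 96-well plates. TGI marks complete inhibition of growth.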 Where a SMILES comes first, the peptide text is derived from it. The star is where a group is joined. OSu = O=C1CCC(=O)N1O*

Key:
Test in all cases: inhibition of tumour cell growth, NCI panel, 48 h
SNB-75 CNS = test system: SNB-75 CNS
HCT-15 colon = test system: HCT-15 colon
HCT-116 colon = test system: HCT-116 colon
SW-620 colon = test system: SW-620 colon
CAKI-1 renal = test system: CAKI-1 renal
SR leukemia = test system: SR leukemia
SK-MEL-5 melanoma = test system: SK-MEL-5 melanoma
HCC-2998 colon = test system: HCC-2998 colon
DU-145 prostate = test system: DU-145 prostate
T-47D breast = test system: T-47D breast

SMILES	TGI (SNB-75 CNS) [µM]	TGI (HCT-15 colon) [µM]	TGI (HCT-116 colon) [µM]	TGI (SW-620 colon) [µM]	TGI (CAKI-1 renal) [µM]	TGI (SR leukemia) [µM]	TGI (SK-MEL-5 melanoma) [µM]	TGI (HCC-2998 colon) [µM]	TGI (DU-145 prostate) [µM]	TGI (T-47D breast) [µM]
COc1cc(C2c3cc4c(cc3[C@@H](N(C)c3ccc(N(C)C)cc3)C3COC(=O)C23)OCO4)cc(OC)c1O (some centres undefined)	42.3	25.7	14.8	21.8	25	44.2	13.7	20.8	–	–
O=C(c1ccco1)N(C(=S)N1CCN(c2ccccn2)CC1)c1ccccc1	> 100	> 100	> 100	> 100	> 100	> 100	> 100	–	–	–
C=CCn1c(=N)/c(=C(\N)O)s/c1=C1/SC(=S)N(c2ccc(C)cc2)C1=O	44.6	–	> 100	> 100	–	> 100	> 100	–	–	–
C/C(O[Si](C(C)C)(C(C)C)C(C)C)=C(\C)C(=O)N(C)c1ccccc1Cl	> 100	> 100	> 100	> 100	> 100	–	> 100	–	> 100	> 100
O=[N+]([O-])C(C(Cl)=C(Cl)Cl)=C(n1cncn1)n1cncn1	> 65.3	36.7	31.9	43.1	11.4	> 100	31.8	98.1	31.6	51
O=C1/C(=C/c2ccccc2)CCCc2ccccc21	> 100	32.3	30.7	32.9	76.2	37.8	–	–	54.7	–
C[n+]1ccccc1/C1=c2\cc/c([nH]2)=C(\c2cccc[n+]2C)C2=N/C(=C(/c3cccc[n+]3C)C3C=CC(N3)/C(c3cccc[n+]3C)=C3/C=CC1=N3)C=C2	–	> 100	> 100	> 100	> 100	> 100	> 100	> 100	> 100	> 100
COCOc1cc(OC)ccc1C/C(=N/O)C(=O)OC	74.4	> 100	> 100	> 100	> 100	–	> 100	> 100	> 100	> 100
O=C(NC1(C(=O)O)CCCC1)c1ccccc1	–	> 100	> 100	> 100	> 100	–	> 100	> 100	> 100	> 100
COC(=O)CC(C(C(C)=O)C(=O)OCc1ccccc1)N1C(=O)OC(c2ccccc2)C1c1ccccc1 (centres undefined)	–	> 100	> 100	> 100	> 100	> 100	> 100	> 100	–	–
O=C1C(Cl)=C(NCCF)C(=O)c2ncccc21	2.6	4.87	3.51	3.35	–	> 10	2.56	2.71	2.99	4.25
CN(C)c1ccc(/C=C(\NC(=O)c2ccccc2)C(=O)NC(Cc2c[nH]c3ccccc23)C(=O)O)cc1 (centres undefined)	33.1	> 100	> 100	> 100	> 100	–	> 100	> 100	> 100	> 100
C/C(O)=C(\C=NC(=S)c1ccncc1)C(=O)Nc1ccccc1C	> 100	> 100	> 100	> 100	> 100	–	> 100	> 100	> 100	> 100
COC(=O)C1(O)C(c2ccccc2)NC2(C)CCCC21 (centres undefined)	> 100	> 100	> 100	> 100	> 100	–	> 100	–	> 100	> 100
O=C(O)c1ccc(Nc2nc3nn(Cc4ccccc4)cc3c(=O)s2)cc1	–	> 100	> 100	> 100	–	> 100	> 100	> 100	–	–
CN(C)N=Nc1ccc2[nH]c(=O)[nH]c2c1	> 100	> 100	> 100	> 100	> 100	–	> 100	> 100	> 100	> 100
Cc1ccc(C(=O)N/N=C2/C(=O)c3c4ccccc4cc4cccc2c34)cc1	> 81	> 100	27.3	> 100	> 81	> 100	> 70.7	> 100	–	83.2
CC[n+]1c(/C=C/c2ccc(N(CCCl)CCCl)cc2)ccc2cc(I)ccc21	0.903	28.1	–	6.96	6.19	2.42	–	2.58	–	–
OC12c3ccccc3C1CCCCCC21OCCCO1 (centres undefined)	> 100	> 100	> 100	> 100	> 100	–	> 100	–	–	–
COc1ccc2oc(C(=O)N3CC(CCl)c4ccc(N)cc43)cc2c1 (centres undefined)	3.23	3.18	0.576	31.5	0.648	4.76	–	1.19	1.62	3.87
O=c1[nH]c(=O)n([C@@H]2O[C@H](CO)[C@@H](O)[C@@H]2F)cc1I	> 100	> 100	> 100	> 100	> 100	–	> 100	> 100	> 100	> 100
CCOC(=O)/C=C(/C(=O)OCC)n1ccc(=O)n(Cc2cnnn2CCCCOC(C)=O)c1=O	> 100	–	> 100	43.2	76.3	> 100	> 100	> 100	> 100	> 100
Cc1cc(C)nc(NS(=O)(=O)c2ccc(NC(=O)c3cc([N+](=O)[O-])cc([N+](=O)[O-])c3)cc2)n1	> 100	> 100	> 100	> 100	> 100	14.7	> 100	–	> 100	> 100
CNC(=S)/C(C#N)=C(\N)N1CCCC1	–	> 100	> 100	> 100	> 100	> 100	> 100	> 100	> 100	> 100

SMILES	TGI (SNB-75 CNS) [µM]	TGI (HCT-15 colon) [µM]	TGI (HCT-116 colon) [µM]	TGI (SW-620 colon) [µM]	TGI (CAKI-1 renal) [µM]	TGI (SR leukemia) [µM]	TGI (SK-MEL-5 melanoma) [µM]	TGI (HCC-2998 colon) [µM]	TGI (DU-145 prostate) [µM]	TGI (T-47D breast) [µM]
C=CCCC(=O)C(=[N+]=[N-])C(=O)CCC(=O)c1ccccc1	> 10	> 10	–	> 10	–	> 10	> 10	–	> 10	> 10
CC1(C)OC2OC(COC(=O)c3ccc(C#N)cc3)C3OC(C)(C)OC3C2O1 (centres undefined)	> 75	> 75	> 75	> 75	> 75	> 75	> 75	> 75	> 75	–
CN1NC(c2ccccc2)=C(C#N)C(=O)CC1c1ccc(Br)cc1 (centres undefined)	46.9	> 100	> 100	> 100	> 100	> 100	57.7	> 100	–	–
COc1ccc(/C(Cl)=C(\C=O)c2ccc(Cl)cc2)cc1OC	11.5	> 100	33.3	15.4	49.2	5.81	> 100	76.2	–	–
COc1cc2c(c(OC)c1OC)-c1ccc(SC)c(=O)cc1C(CC(=O)Oc1cccc(F)c1)C2 (centres undefined)	–	1.97	1.06	> 100	> 73.7	1.47	> 55.8	0.426	–	–
O=C(C1OC1c1cccc([N+](=O)[O-])c1)C12CC3CC(CC(C3)C1)C2 (centres undefined)	20	14.7	4.69	8.44	24.5	–	22.9	14.5	26.8	26.3
Cc1cc(N(CCC#N)CCC#N)ccc1/C(N=Nc1ccc([N+](=O)[O-])cc1)=N\NC(=O)c1ccccc1	> 100	> 100	> 100	–	> 100	> 100	> 100	> 100	> 100	97.1
Cc1ccc(C2C(Cl)C(=O)N2NC(=O)c2ccc(N)cc2)cc1 (centres undefined)	> 100	29.9	28.3	41.3	38.3	–	29.7	> 100	–	–
COc1ccc2c3c1OC1C(OC)(OC)CC4(C=C2)CN(C)CCC314 (centres undefined)	> 100	> 100	> 100	> 100	> 100	–	> 100	> 100	> 100	> 100
NC(N)=N/N=C/c1c(-c2cc([N+](=O)[O-])c(Cl)cc2Cl)nc2n1CCS2	–	> 100	> 100	> 100	> 100	3.43	> 100	5.4	87.2	–
CCOC(=O)C1(C(=O)OCC)C=C(c2ccccc2)N(C2OC(COC(C)=O)C(OC(C)=O)C(OC(C)=O)C2OC(C)=O)C1=S (centres undefined)	–	> 100	> 100	> 100	> 100	> 100	> 100	> 100	> 100	> 100
Cc1cc(NS(=O)(=O)c2ccc(Nc3c4ccccc4nc4c(C(=O)NCCO)cccc34)cc2)no1	53.9	> 100	–	83.8	88.2	> 100	> 100	> 100	> 100	> 100
COc1ccc(CCN2C(=O)CC34C=CC(CC3C2=O)O4)cc1OC (centres undefined)	–	> 100	> 100	> 100	> 100	> 100	> 100	> 100	> 100	> 100
NCCCCC(NC(=O)C(N)Cc1ccc(O)cc1)C(=O)NC(Cc1ccc(O)cc1)C(=O)NC(CCCCN)C(=O)ON1C(=O)CCC1=O (centres undefined) (H-YKYK-OSu; configuration not given here)	> 100	> 100	> 100	> 100	–	> 100	> 100	> 100	–	> 100
OC12CCC3(O)c4ccccc4C3C1c1ccccc12 (centres undefined)	> 100	> 100	> 100	> 100	–	> 100	> 100	–	–	–
CC12CCC(CC1(Cl)Cl)C2 (centres undefined)	> 100	> 100	–	> 100	> 100	> 100	> 100	–	–	> 100
CCn1c(CSc2nc(-c3ccccc3)c(-c3ccccc3)[nH]2)n[nH]c1=S	> 100	> 100	> 100	–	–	> 100	> 100	> 100	–	–
Cc1ccc(/S(Cc2ccccc2)=N\S(=O)(=O)c2ccc(C)cc2)cc1 (centres undefined)	–	> 100	> 100	> 100	–	> 100	–	–	> 100	> 100
COC(=O)CNC(=O)CCC(C)[C@H]1CCC2C3C(C[C@H](OC(C)=O)[C@@]21C)[C@@]1(C)CCC2(C[C@H]1C[C@H]3OC(C)=O)OOC1(CCCCC1)OO2 (some centres undefined)	5.3	8.65	6.25	5.46	3.78	4.21	8.12	5.98	–	5.03
C[n+]1cn(-c2nc3ccccc3nc2[N-]S(=O)(=O)c2ccccc2)c2ccccc21	> 100	> 100	> 100	> 100	> 100	> 100	> 100	> 100	–	> 100
C1=NCCOCCN=Cc2ccc(cc2)OCc2cccc(n2)COc2ccc1cc2	> 100	> 100	> 100	> 100	–	> 100	–	–	> 100	–
CCCCCCCCCC(=O)NC(Cc1ccc(O)cc1)C(=O)NCCCNCCCCNCCCNC(=O)[C@@H](N)CCCN=C(N)N (some centres undefined)	–	> 100	> 100	> 100	–	> 100	35.7	> 100	–	–
[N-]=[N+]=Nc1ccc2c(c1)Sc1ccccc1N2CCCCN1CCN(C(=O)CCNC(=O)Cc2ccc(C(=O)c3ccccc3)cc2)CC1	> 24.4	8.52	18.9	> 39.3	> 100	–	4.39	6.08	> 100	28.7
